“And” between values parts separate entries of the source, which are not always exact repeats. Equal entries are not always repeated.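 Where inhibition never reached the appropriate level, the endpoint shown equals the highest concentration tested. Otherwise, values were interpolated linearly from a five-concentration, 48-hour dose response in 96-well plates. GI50: concentration for 50% inhibition of growth. TGI denotes the concentration required for complete inhibition of growth.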
Each compound was assayed on IGROV1 ovarian (assay: growth of human tumour cells (NCI), 48 h).

SMILES | TGI [µM]
Cc1nc(C(N)=S)sc1/C(CC(=O)C(=O)Nc1cccc2ccc(O)cc12)=N\NC(=O)c1ccncc1 | > 100
Cc1cc(O)c2c(=O)c3ccccc3[nH]c2c1 | 94.2
N=c1n(C(=O)N2CCCC2)c2cc(Cl)ccc2n1C1=NCCN1 | > 100
COc1nc(N)c(C(=O)CCl)c(=O)n1C | 30.2
[N-]=[N+]=Nc1cc(=O)oc2ccccc12 | > 100
Nc1cccc2cc(Cl)cnc12 | > 100
C=C1c2nc3ccccc3n2C=C(c2ccccc2)N1c1ccc([N+](=O)[O-])cc1 | 27
Cc1ccccc1-n1c(=O)c2ncn(CCCl)c2n(-c2ccccc2C)c1=S | > 100

The compounds below were run on OVCAR-5 ovarian (assay: growth of human tumour cells (NCI), 48 h).

SMILES | TGI | GI50 [µM]
CC(=O)Nc1ccc(-c2nnc(SCC(=O)Nc3ccc([N+](=O)[O-])cc3)o2)cc1 | 36 µM | –
N.N.N.N.O=[N+]([O-])[O-].[Co+3].[N-]=[N+]=[N-].[N-]=[N+]=[N-] | > 100 µM | –
COC(=O)C1CCC(=O)N1C(c1ccccc1)c1ccc(OC)c(OC)c1 (centres undefined) | > 100 µM | –
Oc1cccc2c(Cl)ccnc12 | > 50.4 µM | –
Cc1cccc(/C=N/NC(=S)Nc2ccccc2)n1 | > 100 µM | –
N#CC1=C(N)N(c2ccccc2)C(c2ccco2)C1(C#N)C#N (centres undefined) | 48.4 µM | –
Cc1cc(=O)[nH]c(NN2C(Cl)C(=O)C2c2ccccc2O)n1 (centres undefined) | > 100 µM | –
CC(C)c1ccc(/C=C2/C=C(c3ccc4ccccc4c3)OC2=O)cc1 | > 100 µM | –
COc1ccc(/C=C2\CCC(C)C3=C2NC(=S)NC3c2ccc(OC)c(OC)c2)cc1OC (centres undefined) | > 31.6 µM | –
COc1ccc2c(=O)c(O)c(-c3ccc(OC)c(OC)c3)oc2c1 | > 100 µM | –
COc1ccc(C(OCC2OC(n3cc(C)c(=O)[nH]c3=O)CC2n2cc(Cn3cc(I)c(=O)[nH]c3=O)nn2)(c2ccccc2)c2ccccc2)cc1 (centres undefined) | > 100 µM | –
C=C(C1=CC(=O)C(C)(C)O1)[C@@H]1CC=C([C@@H]2CC[C@H]3[C@@]2(C)CC[C@H]2C(C)(C)C(=O)[C@H](O)C[C@]32C)[C@H](O)O1 | 28 µM | –
CC1=CC2C(O1)C1C(=O)C=CC(=O)C1=CC2[N+](=O)[O-] (centres undefined) | 63.3 µM | –
C=C(Br)C(C)(Cl)CCC(Br)C(C)(C)Cl (centres undefined) | > 100 µM | –
Cc1c2cnccc2c(C)c2c1c1ccccc1n2CCCN | 1.71 µM and 0.874 µM | 0.196
O=C(CCC(=O)c1ccc(Cl)cc1)NO | > 100 µM | –
COc1c(C)c(C/C=C(\C)CCCCO[Si](c2ccccc2)(c2ccccc2)C(C)(C)C)c(OC)c(OC)c1OC | > 46.4 µM | –
CN1CCN([C@H]2C[C@H]3[C@@H]4CC=C5C[C@@H](O)CC[C@]5(C)[C@H]4CC[C@]3(C)C2=O)CC1 | > 100 µM | –
COc1ccc(C2c3cc4c(cc3OC(NNS(=O)(=O)c3ccc(C)cc3)C2C)OCO4)cc1 (centres undefined) | > 100 µM | –
CNC(=O)OCC1=C(COC(=O)NC)C(C)N(c2ccc(OC)cc2)C1 (centres undefined) | > 100 µM | –
CCC12C=CCN3CCC4(C(=C(C(=O)OC)[C@@H]1O)Nc1ccccc14)C32 (some centres undefined) | 4.67 µM | –
O=C(O)CN(CC(=O)O)C1CCCCC1N(CC(=O)O)CC(=O)NCCN=C=S (centres undefined) | > 100 µM | –
Cc1nc(C(N)=S)sc1/C(CC(=O)C(=O)Nc1cccc2ccc(O)cc12)=N\NC(=O)c1ccncc1 | > 100 µM | –
Cc1cc(O)c2c(=O)c3ccccc3[nH]c2c1 | > 100 µM | –
N=c1n(C(=O)N2CCCC2)c2cc(Cl)ccc2n1C1=NCCN1 | > 100 µM | –
COc1nc(N)c(C(=O)CCl)c(=O)n1C | 37.2 µM | –
[N-]=[N+]=Nc1cc(=O)oc2ccccc12 | > 100 µM | –
Nc1cccc2cc(Cl)cnc12 | > 100 µM | –
C=C1c2nc3ccccc3n2C=C(c2ccccc2)N1c1ccc([N+](=O)[O-])cc1 | 40.7 µM | –
Cc1ccccc1-n1c(=O)c2ncn(CCCl)c2n(-c2ccccc2C)c1=S | > 100 µM | –

Source: PubChem BioAssay (NCI)
